Target: T1, hER Gly-400 (HEGO) (Homo sapiens, UniProt P03372)
T1 construct: expressed in transfected cells; host or cells: HeLa
T1 sequence (P03372 1-595): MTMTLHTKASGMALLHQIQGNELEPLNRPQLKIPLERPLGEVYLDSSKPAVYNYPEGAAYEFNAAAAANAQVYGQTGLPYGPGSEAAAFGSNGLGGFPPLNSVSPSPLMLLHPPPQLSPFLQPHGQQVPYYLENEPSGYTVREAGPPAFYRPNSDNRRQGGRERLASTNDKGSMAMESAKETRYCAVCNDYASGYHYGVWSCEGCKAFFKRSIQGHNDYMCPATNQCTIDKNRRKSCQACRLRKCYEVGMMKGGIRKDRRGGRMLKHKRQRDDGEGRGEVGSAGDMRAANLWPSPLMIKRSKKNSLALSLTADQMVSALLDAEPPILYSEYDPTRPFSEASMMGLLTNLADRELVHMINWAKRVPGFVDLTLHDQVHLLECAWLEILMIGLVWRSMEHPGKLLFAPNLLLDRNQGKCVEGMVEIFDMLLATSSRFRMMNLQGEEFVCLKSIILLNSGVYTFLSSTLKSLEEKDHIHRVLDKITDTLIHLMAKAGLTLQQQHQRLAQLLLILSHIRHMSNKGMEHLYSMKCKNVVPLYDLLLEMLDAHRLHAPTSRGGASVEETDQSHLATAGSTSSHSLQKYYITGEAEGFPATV
Test: transcription activation, vit-tk-CAT reporter in HeLa cells transfected with HEGO
Assay type: cell-based, humain
Conditions: 10⁻⁷ M ICI 164,384 in the presence of 10⁻⁸ M oestradiol, CAT activity
Procedure: On a transfecté des cellules Hela avec 50 ng de vecteurs d'expression de Er humain ou de Er de poulet comme indiqué, conjointement avec 1 µg de plasmide "reporter" vit-tk-cat, et le plasmide pCH 110 de contrôle interne de l'expression de la béta-galactosidase (3µg) et de l'ADN transporteur (Bluescribe M13+) pour un total de 20 µg d'ADN.
• A) Des cellules HeLa ont été transfectées avec 10 ng des vecteurs d'expression de l'hER correspondant, HEO (colonnes 1-5), ou HEGO (colonnes 6-10), conjointement avec 1 µG de plasmide "reporter" vit-tk-CAT, 3 µG du plasmide de contrôle de la béta-galactosidase pCH110 et avec de l'ADN Bluescribe M13+ pour un total d'ADN de 20 µg. […] 2 heures plus tard on a récolté les cellules […] et un dosage de la béta-galactosidase a été effectué.

CCCCN(C)C(=O)CCCCCCCCCC[C@@H]1Cc2cc(O)ccc2[C@H]2CC[C@]3(C)[C@@H](O)CC[C@H]3[C@H]12 [ICI 164,384]
effet sur l'induction à l'oestradiol: très peu d'effet

From patent EP0406122A1, “Process for obtaining a native, wild-type human oestrogen receptor and its applications” (ASSOCIATION POUR LE DEVELOPPEMENT DE LA RECHERCHE EN …, priority 1989, dated 1991)
